Experimental findings from patent publication US12538922B2, “Composition and methods for parasite control” (priority 2019, dated 2026) are described below.

Counter-ions that a name gives are not always drawn. Like-named read-outs stand apart in the source and are kept apart here.

For series [1], the system named is R. sanguineus tick larvae. The conditions noted are these: for Repellence Median (Q1-Q3) [%] / Knockdown Median (Q1-Q3) [%]: pure compound; for Repellence Median (Q1-Q3) [%]: median of replicates; for Knockdown Median (Q1-Q3) [%]: motility reduction over 9 min. As to the method:
FIG. 1 Schematic representation of the tick repellent test. 30-60 tick larvae are deposited in the non-treated area of a circular arena (8.96 cm^2) whereby one quadrant of the surface (2.25 cm^2) is treated. After 1 minute, the distribution of ticks in the treated and untreated areas is measured for a duration of 2 minutes. The repellent/deterrent effect is expressed in %: 100% means that ticks completely avoided the treated surface. Toxicity is measured in the same setup over a duration of 8 minutes and the mortality is expressed in % motility reduction between the beginning and the end of the 8 minutes. Dosages are expressed as a quantity (mg or molarity) per surface unit (m^2), as the compound or extract is deposited at the bottom of the well. Pure compounds: dose given in micromoles/m^2; Extracts: dose given in micrograms/m^2. Tests were run in triplicates.
The assay is used to evaluate the repellent/deterrent potential of a test compound or extract. The test includes a preliminary assessment of knockdown efficacy as a secondary endpoint. Knockdown can be defined as a state of intoxication and paralysis that usually precedes death (Wickham et al. (1974) Pesticide Science 5(5): 657-664). The test relies on the questing behavior of ticks that explore their habitat to find a suitable host hunting site and their propensity to avoid areas treated with repellent or irritating substances. Tick knockdown is expressed as a reduction in total motility over a defined period of time, and not by collecting and counting the number of dead and live ticks at the end of the exposure period.
Plant extracts or synthetic pure alkaloids diluted in methanol (extracts) or ethanol (alkaloids) were deposited on the bottom of wells in a six-well plate. Only one quadrant ([…]) of the bottom surface of each well was treated. The solvent was left to evaporate. The final concentration of the plant extracts was, therefore, expressed in mg/m^2, or in micromoles per square meter (μmol/m^2) for the synthetic alkaloids. Final concentrations applied for plant extracts were 893 (R. sanguineus adults only), 446, 141, 44.6, 14.1, and 4.46 mg/m^2, and 300, 100, 30, 10, and 3 μmol/m^2 for pure alkaloids. Approximately 50 R. sanguineus tick larvae, and exactly 5 R. sanguineus adults, or 5 I. ricinus nymphs were added to the untreated area of each well. Positive (DEET, commercial tick repellent) and negative (methanol or ethanol) controls were evaluated in parallel. Each concentration tested was run in three or more test replicates. After a 1-min incubation on a heating plate, the frequency of tick movement in the treated quadrant and in each of the untreated quadrants was recorded by machine vision. Tick movement on the untreated surface was computed as the median of movement on the three untreated quadrants. To estimate deterrence recordings were performed over a period of 2 min for R. sanguineus larvae, and for 3 minutes for R. sanguineus adults and I. ricinus nymphs, after the 1-min pre-exposure period. To assess knockdown effect, recording was extended to 9 min (starting at the 1-min pre-exposure period and lasting an additional 8 minutes).
Deterrence activity was calculated as follows: Percent deterrence=1−(movements on treated area/movements on untreated area)×100.
A difference of 50% between total movements recorded in the treated area versus movements recorded in the untreated area was considered significant.
The tick knockdown effect was calculated similarly: Percent knockdown=1−(movements at the end of the imaging period/movements at the beginning of the imaging period)×100.
A difference of 50% between total movements recorded during the 1 min pre-exposure and total movements measured at 9 min of recording was considered significant.

Series [2] relates to adult Aedes aegypti mosquitoes. Kind of series: Mosquito repellency assay (landings and time on warm treated surface). The conditions noted are these: for Mean probing time [%, compared to control]: 100% = same time as on vehicle-treated surface; for Repellency, % reduction in landings vs vehicle control: repellency as percentage reduction of control, 100% = no landings. Format: in vivo. As to the method: The compound of the invention is mixed with ethanol to make a composition that can be applied to a surface and allowed to dry. After the surface is treated with the compounds of the invention and dried, it is heated to human body temperature, and the number of landings and the total time spent by the mosquitoes on the warm surface by adult Aedes aegypti mosquitoes is recorded automatically by machine vision to measure repellency of each compound.
Repellency (based on the number of individual landings on the warm surface) is expressed as a percentage reduction of the control, where the average number of mosquitoes landing on a warm surface treated only with the vehicle solvent is counted. 100% means no mosquitoes landed on the warm surface.
For mosquitoes that still landed on the warm surface, the time spent on the warm surface is also recorded and expressed as a percentage of the control, corresponding to the average time that mosquitoes spent on the same warm surface when treated only with the vehicle solvent. 100% mean that the mosquitoes spent the same time on the treated warm surface as on a warm surface treated only with the vehicle solvent.
Each compound/dose is tested in triplicate using a surface of 18.9 cm2 and 100 microliters of solution without the compound (the placebo) or with the compound dilution spread on the surface, and allowed to dry before the test. The average and standard error on triplicates is calculated. The control (using only vehicle solvent) is run with ethanol. The same population of mosquitoes is exposed first to the warm surface treated with the vehicle solvent, then to the surface treated with the compound. The concentration of the solution comprising the test compound was adjusted to ensure the treatment dosage of the compound is according to the final concentration per surface units area in the table.

Where [3] appears, read: Table 5, N = 3 subset of Table 4, dose 300.
Setting [4] is: concentration 100 μmol/m^2, dihydrochloride.

Regarding `C1=CC[C@H](c2cccnc2)NC1` [(R)-anatabine dihydrochloride], the “MEC (μmol/m^2)” value in series [1] (Table 5, N = 3 subset of Table 4) was found to be 30 μmol/m^2. The “% repellency” value in series [1] (Table 5, N = 3 subset of Table 4, dose 3) is given as 0%; in series [1] (Table 5, N = 3 subset of Table 4, dose 30), 62%; in series [1] (setting [3]), 97%. In addition, the “% mortality” value in series [1] (setting [3]) stood at 24%. Besides, the “Repellence Median (Q1-Q3) [%]” value is recorded as 20.8% in series [1] (concentration 3 μmol/m^2); 34.4% in series [1] (concentration 10 μmol/m^2, dihydrochloride); 34% in series [1] (concentration 10 μmol/m^2, listed as (R)-anatabine, dihydrochloride); 62.0% in series [1] (concentration 30 μmol/m^2, dihydrochloride); 62% in series [1] (concentration 30 μmol/m^2, listed as (R)-anatabine, dihydrochloride); 84.3% in series [1] (setting [4]). In addition, the “Repellence Median (Q1-Q3) [%]” value in series [1] (concentration 100 μmol/m^2, listed as (R)-anatabine, dihydrochloride) turned out to be 84%; in series [1] (concentration 300 μmol/m^2), 88.3%. The “Knockdown Median (Q1-Q3) [%]” value in series [1] (concentration 3 μmol/m^2) turned out to be 0%; in series [1] (concentration 10 μmol/m^2), 7.5%; in series [1] (concentration 30 μmol/m^2) it was 11.1%; in series [1] (setting [4]) it was 54.5%; in series [1] (concentration 300 μmol/m^2, dihydrochloride), 52.7%. Also, the “Knockdown Minimum effective concentration” value in series [1] (smallest concentration with median activity above 50% significance limit) came out at 100 μmol/m^2. In addition, in series [1] (smallest concentration with median activity above 50% significance limit, dihydrochloride), the “Repellence Minimum effective concentration” value was 30 μmol/m^2. Further, the “Mean probing time [%, compared to control]” value in series [2] (dose 380 μmol/m^2) is on record as 128.9%; in series [2] (dose 760 μmol/m^2) it was 48.5%. The “Repellency, % reduction in landings vs vehicle control” value in series [2] (dose 380 μmol/m^2) is 8.1%; in series [2] (dose 760 μmol/m^2), 42.9%.
